Results reported in US9771334B2, “Triketone compound and preparation method and use thereof” (SHANDONG CYNDA CHEMICAL CO., LTD., priority 2013, dated 2017).

Test system: abutilon theophrasti
Assay: Herbicidal activity, pot culture method (primary and secondary screening test)
Assay type: in vivo
Conditions: primary screening, pot culture, 150 g/ha, sprayed at 3-leaf stage, result 15 days later
Source text: (§1) This test example is for describing the herbicidal activity inhibition ratio (%) (the dose is 150 g/ha) of the compound with a structure shown in Formula (I). Primary screening test (pot culture method): The test targets are abutilon theophrasti, digitaria sanguinalis, amaranthus retroflexus, echinochloa crusgalli, eclipta prostrata and setaria viridis. Take flowerpots with an inner diameter of 6 cm, put composite soil (vegetable garden soil:seedling matrix=1:2, v/v) into them till 3⁄4 of flowerpot height, directly sow the above six weed targets (budding rate>85%), cover them with 0.2 cm thick soil, and keep them for future use when the weeds grow to 3-leaf stage. Each compound is dissolved in N,N-dimethylformamide at a dose of 150 g/ha and diluted with distilled water into a 0.2 g/L solution. The solution is sprayed through an automatic spray tower. After the solution on weed leaves is aired dry, the flowerpots are moved into a greenhouse for cultivation. The result is investigated 15 days later. By the same method adopted in primary screening test, a secondary screening test is done on some typical compounds, such as: 5, 6, 20, 21, 23, 34, 47, 65, 66, 70 and 91 at a reduced dose, and the test result is compared with mesotrione which is commercially available and has a good herbicidal effect. The test method is same as that adopted in primary screening test. Mesotrione is bought from Hubei […] Chemical Co., Ltd.

SMILES	herbicidal activity inhibition ratio (%), Abutilon theophrasti [%]
Cn1c(=O)n(-c2ccc(C(F)(F)F)cc2)c(=O)c2cc(C(=O)C3=C(O)CC(C)(C)CC3=O)ccc21 [Compound 31]	60
Cn1c(=O)n(-c2cccc(F)c2)c(=O)c2cc(C(=O)C3=C(O)CCCC3=O)ccc21 [Compound 10]	100
Cn1c(=O)n(-c2ccc(Cl)cc2Cl)c(=O)c2cc(C(=O)C3=C(O)CC(C)(C)CC3=O)ccc21 [Compound 63]	100
Cc1ccccc1-n1c(=O)c2cc(C(=O)C3=C(O)CCCC3=O)ccc2n(Cc2ccccc2F)c1=O [Compound 83]	0
Cn1c(=O)n(-c2ccc([N+](=O)[O-])cc2)c(=O)c2cc(C(=O)C3=C(O)CC(C)(C)CC3=O)ccc21 [Compound 53]	100
CCCCn1c(=O)n(-c2ccccc2C)c(=O)c2cc(C(=O)C3=C(O)CCCC3=O)ccc21 [Compound 73]	50
Cc1ccc(-n2c(=O)c3cc(C(=O)C4=C(O)CC(C)(C)CC4=O)ccc3n(C)c2=O)cc1 [Compound 15]	60
COc1cccc(Cn2c(=O)n(-c3ccccc3C)c(=O)c3cc(C(=O)C4=C(O)CC(C)(C)CC4=O)ccc32)c1 [Compound 81]	0
Cn1c(=O)n(-c2ccccc2)c(=O)c2cc(C(=O)C3=C(O)CC(C)(C)CC3=O)ccc21 [Compound 40]	100
Cc1ccccc1-n1c(=O)[nH]c2ccc(C(=O)C3=C(O)CCCC3=O)cc2c1=O [Compound 68]	15
Cc1ccc(Cl)cc1-n1c(=O)c2cc(C(=O)C3=C(O)CCCC3=O)ccc2n(C)c1=O [Compound 33]	85
C#CCn1c(=O)n(-c2ccccc2C)c(=O)c2cc(C(=O)C3=C(O)CCCC3=O)ccc21 [Compound 77]	90
CCc1ccccc1-n1c(=O)c2cc(C(=O)C3=C(O)CC(C)(C)CC3=O)ccc2n(C)c1=O [Compound 89]	100
Cn1c(=O)n(-c2cc(Cl)cc(Cl)c2)c(=O)c2cc(C(=O)C3=C(O)CCCC3=O)ccc21 [Compound 7]	100

Test system: amaranthus retroflexus
Assay: as above
Assay type: in vivo
Conditions: primary screening, pot culture, 150 g/ha, sprayed at 3-leaf stage, result 15 days later
Source text: as §1

SMILES	herbicidal activity inhibition ratio (%), Amaranthus retroflexus [%]
Cn1c(=O)n(-c2ccc(C(F)(F)F)cc2)c(=O)c2cc(C(=O)C3=C(O)CC(C)(C)CC3=O)ccc21 [Compound 31]	80
Cn1c(=O)n(-c2cccc(F)c2)c(=O)c2cc(C(=O)C3=C(O)CCCC3=O)ccc21 [Compound 10]	85
Cn1c(=O)n(-c2ccc(Cl)cc2Cl)c(=O)c2cc(C(=O)C3=C(O)CC(C)(C)CC3=O)ccc21 [Compound 63]	30
Cc1ccccc1-n1c(=O)c2cc(C(=O)C3=C(O)CCCC3=O)ccc2n(Cc2ccccc2F)c1=O [Compound 83]	0
Cn1c(=O)n(-c2ccc([N+](=O)[O-])cc2)c(=O)c2cc(C(=O)C3=C(O)CC(C)(C)CC3=O)ccc21 [Compound 53]	80
CCCCn1c(=O)n(-c2ccccc2C)c(=O)c2cc(C(=O)C3=C(O)CCCC3=O)ccc21 [Compound 73]	30
Cc1ccc(-n2c(=O)c3cc(C(=O)C4=C(O)CC(C)(C)CC4=O)ccc3n(C)c2=O)cc1 [Compound 15]	70
COc1cccc(Cn2c(=O)n(-c3ccccc3C)c(=O)c3cc(C(=O)C4=C(O)CC(C)(C)CC4=O)ccc32)c1 [Compound 81]	0
Cn1c(=O)n(-c2ccccc2)c(=O)c2cc(C(=O)C3=C(O)CC(C)(C)CC3=O)ccc21 [Compound 40]	95
Cc1ccccc1-n1c(=O)[nH]c2ccc(C(=O)C3=C(O)CCCC3=O)cc2c1=O [Compound 68]	0
Cc1ccc(Cl)cc1-n1c(=O)c2cc(C(=O)C3=C(O)CCCC3=O)ccc2n(C)c1=O [Compound 33]	90
C#CCn1c(=O)n(-c2ccccc2C)c(=O)c2cc(C(=O)C3=C(O)CCCC3=O)ccc21 [Compound 77]	90
CCc1ccccc1-n1c(=O)c2cc(C(=O)C3=C(O)CC(C)(C)CC3=O)ccc2n(C)c1=O [Compound 89]	100
Cn1c(=O)n(-c2cc(Cl)cc(Cl)c2)c(=O)c2cc(C(=O)C3=C(O)CCCC3=O)ccc21 [Compound 7]	90

Test system: digitaria sanguinalis
Assay: as above
Assay type: in vivo
Conditions: primary screening, pot culture, 150 g/ha, sprayed at 3-leaf stage, result 15 days later
Source text: as §1

SMILES	herbicidal activity inhibition ratio (%), Digitaria sanguinalis [%]
Cn1c(=O)n(-c2ccc(C(F)(F)F)cc2)c(=O)c2cc(C(=O)C3=C(O)CC(C)(C)CC3=O)ccc21 [Compound 31]	60
Cn1c(=O)n(-c2cccc(F)c2)c(=O)c2cc(C(=O)C3=C(O)CCCC3=O)ccc21 [Compound 10]	75
Cn1c(=O)n(-c2ccc(Cl)cc2Cl)c(=O)c2cc(C(=O)C3=C(O)CC(C)(C)CC3=O)ccc21 [Compound 63]	20
Cc1ccccc1-n1c(=O)c2cc(C(=O)C3=C(O)CCCC3=O)ccc2n(Cc2ccccc2F)c1=O [Compound 83]	30
Cn1c(=O)n(-c2ccc([N+](=O)[O-])cc2)c(=O)c2cc(C(=O)C3=C(O)CC(C)(C)CC3=O)ccc21 [Compound 53]	25
CCCCn1c(=O)n(-c2ccccc2C)c(=O)c2cc(C(=O)C3=C(O)CCCC3=O)ccc21 [Compound 73]	0
Cc1ccc(-n2c(=O)c3cc(C(=O)C4=C(O)CC(C)(C)CC4=O)ccc3n(C)c2=O)cc1 [Compound 15]	75
COc1cccc(Cn2c(=O)n(-c3ccccc3C)c(=O)c3cc(C(=O)C4=C(O)CC(C)(C)CC4=O)ccc32)c1 [Compound 81]	0
Cn1c(=O)n(-c2ccccc2)c(=O)c2cc(C(=O)C3=C(O)CC(C)(C)CC3=O)ccc21 [Compound 40]	85
Cc1ccccc1-n1c(=O)[nH]c2ccc(C(=O)C3=C(O)CCCC3=O)cc2c1=O [Compound 68]	0
Cc1ccc(Cl)cc1-n1c(=O)c2cc(C(=O)C3=C(O)CCCC3=O)ccc2n(C)c1=O [Compound 33]	80
C#CCn1c(=O)n(-c2ccccc2C)c(=O)c2cc(C(=O)C3=C(O)CCCC3=O)ccc21 [Compound 77]	0
CCc1ccccc1-n1c(=O)c2cc(C(=O)C3=C(O)CC(C)(C)CC3=O)ccc2n(C)c1=O [Compound 89]	60
Cn1c(=O)n(-c2cc(Cl)cc(Cl)c2)c(=O)c2cc(C(=O)C3=C(O)CCCC3=O)ccc21 [Compound 7]	70

Test system: echinochloa crusgalli
Assay: as above
Assay type: in vivo
Conditions: primary screening, pot culture, 150 g/ha, sprayed at 3-leaf stage, result 15 days later
Source text: as §1

SMILES	herbicidal activity inhibition ratio (%), Echinochloa crusgalli [%]
Cn1c(=O)n(-c2ccc(C(F)(F)F)cc2)c(=O)c2cc(C(=O)C3=C(O)CC(C)(C)CC3=O)ccc21 [Compound 31]	40
Cn1c(=O)n(-c2cccc(F)c2)c(=O)c2cc(C(=O)C3=C(O)CCCC3=O)ccc21 [Compound 10]	85
Cn1c(=O)n(-c2ccc(Cl)cc2Cl)c(=O)c2cc(C(=O)C3=C(O)CC(C)(C)CC3=O)ccc21 [Compound 63]	25
Cc1ccccc1-n1c(=O)c2cc(C(=O)C3=C(O)CCCC3=O)ccc2n(Cc2ccccc2F)c1=O [Compound 83]	50
Cn1c(=O)n(-c2ccc([N+](=O)[O-])cc2)c(=O)c2cc(C(=O)C3=C(O)CC(C)(C)CC3=O)ccc21 [Compound 53]	0
CCCCn1c(=O)n(-c2ccccc2C)c(=O)c2cc(C(=O)C3=C(O)CCCC3=O)ccc21 [Compound 73]	0
Cc1ccc(-n2c(=O)c3cc(C(=O)C4=C(O)CC(C)(C)CC4=O)ccc3n(C)c2=O)cc1 [Compound 15]	70
COc1cccc(Cn2c(=O)n(-c3ccccc3C)c(=O)c3cc(C(=O)C4=C(O)CC(C)(C)CC4=O)ccc32)c1 [Compound 81]	0
Cn1c(=O)n(-c2ccccc2)c(=O)c2cc(C(=O)C3=C(O)CC(C)(C)CC3=O)ccc21 [Compound 40]	78
Cc1ccccc1-n1c(=O)[nH]c2ccc(C(=O)C3=C(O)CCCC3=O)cc2c1=O [Compound 68]	0
Cc1ccc(Cl)cc1-n1c(=O)c2cc(C(=O)C3=C(O)CCCC3=O)ccc2n(C)c1=O [Compound 33]	85
C#CCn1c(=O)n(-c2ccccc2C)c(=O)c2cc(C(=O)C3=C(O)CCCC3=O)ccc21 [Compound 77]	50
CCc1ccccc1-n1c(=O)c2cc(C(=O)C3=C(O)CC(C)(C)CC3=O)ccc2n(C)c1=O [Compound 89]	80
Cn1c(=O)n(-c2cc(Cl)cc(Cl)c2)c(=O)c2cc(C(=O)C3=C(O)CCCC3=O)ccc21 [Compound 7]	80

Test system: eclipta prostrata
Assay: as above
Assay type: in vivo
Conditions: primary screening, pot culture, 150 g/ha, sprayed at 3-leaf stage, result 15 days later
Source text: as §1

SMILES	herbicidal activity inhibition ratio (%), Eclipta prostrata [%]
Cn1c(=O)n(-c2ccc(C(F)(F)F)cc2)c(=O)c2cc(C(=O)C3=C(O)CC(C)(C)CC3=O)ccc21 [Compound 31]	55
Cn1c(=O)n(-c2cccc(F)c2)c(=O)c2cc(C(=O)C3=C(O)CCCC3=O)ccc21 [Compound 10]	80
Cn1c(=O)n(-c2ccc(Cl)cc2Cl)c(=O)c2cc(C(=O)C3=C(O)CC(C)(C)CC3=O)ccc21 [Compound 63]	50
Cc1ccccc1-n1c(=O)c2cc(C(=O)C3=C(O)CCCC3=O)ccc2n(Cc2ccccc2F)c1=O [Compound 83]	90
Cn1c(=O)n(-c2ccc([N+](=O)[O-])cc2)c(=O)c2cc(C(=O)C3=C(O)CC(C)(C)CC3=O)ccc21 [Compound 53]	80
CCCCn1c(=O)n(-c2ccccc2C)c(=O)c2cc(C(=O)C3=C(O)CCCC3=O)ccc21 [Compound 73]	0
Cc1ccc(-n2c(=O)c3cc(C(=O)C4=C(O)CC(C)(C)CC4=O)ccc3n(C)c2=O)cc1 [Compound 15]	60
COc1cccc(Cn2c(=O)n(-c3ccccc3C)c(=O)c3cc(C(=O)C4=C(O)CC(C)(C)CC4=O)ccc32)c1 [Compound 81]	0
Cn1c(=O)n(-c2ccccc2)c(=O)c2cc(C(=O)C3=C(O)CC(C)(C)CC3=O)ccc21 [Compound 40]	80
Cc1ccccc1-n1c(=O)[nH]c2ccc(C(=O)C3=C(O)CCCC3=O)cc2c1=O [Compound 68]	0
Cc1ccc(Cl)cc1-n1c(=O)c2cc(C(=O)C3=C(O)CCCC3=O)ccc2n(C)c1=O [Compound 33]	83
C#CCn1c(=O)n(-c2ccccc2C)c(=O)c2cc(C(=O)C3=C(O)CCCC3=O)ccc21 [Compound 77]	35
CCc1ccccc1-n1c(=O)c2cc(C(=O)C3=C(O)CC(C)(C)CC3=O)ccc2n(C)c1=O [Compound 89]	70
Cn1c(=O)n(-c2cc(Cl)cc(Cl)c2)c(=O)c2cc(C(=O)C3=C(O)CCCC3=O)ccc21 [Compound 7]	60

Test system: setaria viridis
Assay: as above
Assay type: in vivo
Conditions: primary screening, pot culture, 150 g/ha, sprayed at 3-leaf stage, result 15 days later
Source text: as §1

SMILES	herbicidal activity inhibition ratio (%), Setaria viridis [%]
Cn1c(=O)n(-c2ccc(C(F)(F)F)cc2)c(=O)c2cc(C(=O)C3=C(O)CC(C)(C)CC3=O)ccc21 [Compound 31]	10
Cn1c(=O)n(-c2cccc(F)c2)c(=O)c2cc(C(=O)C3=C(O)CCCC3=O)ccc21 [Compound 10]	80
Cn1c(=O)n(-c2ccc(Cl)cc2Cl)c(=O)c2cc(C(=O)C3=C(O)CC(C)(C)CC3=O)ccc21 [Compound 63]	30
Cc1ccccc1-n1c(=O)c2cc(C(=O)C3=C(O)CCCC3=O)ccc2n(Cc2ccccc2F)c1=O [Compound 83]	50
Cn1c(=O)n(-c2ccc([N+](=O)[O-])cc2)c(=O)c2cc(C(=O)C3=C(O)CC(C)(C)CC3=O)ccc21 [Compound 53]	80
CCCCn1c(=O)n(-c2ccccc2C)c(=O)c2cc(C(=O)C3=C(O)CCCC3=O)ccc21 [Compound 73]	10
Cc1ccc(-n2c(=O)c3cc(C(=O)C4=C(O)CC(C)(C)CC4=O)ccc3n(C)c2=O)cc1 [Compound 15]	75
COc1cccc(Cn2c(=O)n(-c3ccccc3C)c(=O)c3cc(C(=O)C4=C(O)CC(C)(C)CC4=O)ccc32)c1 [Compound 81]	10
Cn1c(=O)n(-c2ccccc2)c(=O)c2cc(C(=O)C3=C(O)CC(C)(C)CC3=O)ccc21 [Compound 40]	45
Cc1ccccc1-n1c(=O)[nH]c2ccc(C(=O)C3=C(O)CCCC3=O)cc2c1=O [Compound 68]	10
Cc1ccc(Cl)cc1-n1c(=O)c2cc(C(=O)C3=C(O)CCCC3=O)ccc2n(C)c1=O [Compound 33]	60
C#CCn1c(=O)n(-c2ccccc2C)c(=O)c2cc(C(=O)C3=C(O)CCCC3=O)ccc21 [Compound 77]	20
CCc1ccccc1-n1c(=O)c2cc(C(=O)C3=C(O)CC(C)(C)CC3=O)ccc2n(C)c1=O [Compound 89]	75
Cn1c(=O)n(-c2cc(Cl)cc(Cl)c2)c(=O)c2cc(C(=O)C3=C(O)CCCC3=O)ccc21 [Compound 7]	80
